Measurements taken from patent US9060949B2, “Menthyl carbamate compounds as skin and/or hair lightening actives” (SYMRISE AG, priority 2010, dated 2015).

Each compound was assayed on Pigmented pig skin (assay: Depigmenting effect on ex vivo skin (melanin granules, Fontana-Masson staining, image analysis)). Settings: 1 wt.% in O/W emulsion applied topically, 6 days, vs. emulsion without test compound.
Format: cell-based
Procedure: Pigmented pig skin was excised from animals (slaughtered for meat production; the pig skin model included the subcutis fat layer as described in EP 1 939 27), cut into 4×4×3 mm pieces (length×width×height) and placed in culture at the air-liquid interface on a sterilized cotton pad soaked with 5 ml of customized DMEM (Dulbecco's Modified Eagle Medium). Assays were started 24 h after sample acclimatization at 37° C., 5% CO2. O/W emulsions (as described in more detail below) without (=control) and with the test compounds, respectively, were applied topically and incubated for 6 days. Histological sections were prepared and melanin granules stained by Fontana-Masson technique. The granules were quantified by image analysis.
The O/W emulsions used had the following composition:
Phases A and B are heated to 70° C. separately. Pemulen TR1 as well as Ultrez-21 are dispersed in phase B when heated to 70° C. Phase B/C is added to phase A by mixing with an Ultra Turrax, followed by emulsifying. Phase D is slowly added to phase A/B/C using a paddle mixer and a pH 5.5-6 is adjusted. The formulation is cooled down while mixing with a paddle mixer. Phase E is prepared by dissolving one or more compounds of formula (I) in Hydrolite-5. Subsequently, phase E is added to the mixture of phase A-D.
With `CCNC(=O)O[C@@H]1C[C@H](C)CC[C@H]1C(C)C` [BIO1151, Ethyl-carbamic acid (1R,2S,5R)-2-isopropyl-5-methyl-cyclohexyl ester] the “Melanin score vs. Control” value was −44%.
`COCCCNC(=O)O[C@@H]1C[C@H](C)CC[C@H]1C(C)C` [BIO1155, (3-Methoxy-propyl)-carbamic acid (1R,2S,5R)-2-isopropyl-5-methyl-cyclohexyl ester] was tested, and the “Melanin score vs. Control” value was −46%.

Each compound was assayed on B16V mouse melanoma cells (assay: Depigmenting effect on melanoma cell cultures (inhibition of pigmentation)). Settings: 96 h, read-out: IC 50 (concentration at which pigmentation is inhibited by 50%).
Format: cell-based
Procedure: B16V mouse melanoma cells are disseminated in a 96-well microtitre plate in a concentration of 5×10^3 cells/well. After cultivation for 24 h at 37° C. and 5% CO2 in RPMI medium, enriched with 10% foetal calf serum, various concentrations of the test substances and 0.3 mM tyrosine and 10 nM α-MSH (α-melanocyte stimulating hormone) are added and incubated for a further 96 h. The maximum concentration of the test substances used corresponds to 0.1 times the value of the IC20 value of the cytotoxicity assay. Standards are incubated with kojic acid in concentrations of 0.01 mM, 0.1 mM and 1 mM in addition to tyrosine and α-MSH. Only tyrosine and α-MSH are added to the controls. After incubation, sodium lauryl sulfate and sodium hydroxide solution (final concentrations: 1 mM and 1 M respectively) are added to the culture medium and the absorption (A) is measured after 3 h at 400 nm.
The inhibition of pigmentation in the presence of the test compounds or kojic acid was calculated using the following equation: Inhibition of pigmentation(%)=100−[(Atest compound/Acontrol)×100] wherein Atest compound=absorption of the wells with test substance and with cells Acontrol=absorption of the wells without test substance, but with cells
From the inhibition of pigmentation (%) in a series of dilutions of test compounds, the IC50 for each test compound is calculated. This is the concentration of a test compound at which pigmentation is inhibited by 50%.
`CC(C)[C@@H]1CC[C@@H](C)C[C@H]1OC(=O)NCc1ccc2c(c1)OCO2` [BIO1571, Benzo[1,3]dioxol-5-ylmethyl-carbamic acid (1R,2S,5R)-2-isopropyl-5-methyl-cyclohexyl ester] gave an IC50 of 5.5 µM.

Same assay, conditions: B16V cells, 0.3 mM tyrosine and 10 nM α-MSH, 96 h incubation, absorption at 400 nm, read-out: IC 50 (concentration at which pigmentation is inhibited by 50%)
For `CCNC(=O)O[C@@H]1C[C@H](C)CC[C@H]1C(C)C` [BIO1151, Ethyl-carbamic acid (1R,2S,5R)-2-isopropyl-5-methyl-cyclohexyl ester], the IC50 was 40.9 µM.
`COCCCNC(=O)O[C@@H]1C[C@H](C)CC[C@H]1C(C)C` [BIO1155, (3-Methoxy-propyl)-carbamic acid (1R,2S,5R)-2-isopropyl-5-methyl-cyclohexyl ester] showed an IC50 of 22.1 µM.
`CC(C)CNC(=O)O[C@@H]1C[C@H](C)CC[C@H]1C(C)C` [BIO1159, Isobutyl-carbamic acid (1R,2S,5R)-2-isopropyl-5-methyl-cyclohexyl ester] gave an IC50 of 100 µM.
Compound `CNC(=O)O[C@@H]1C[C@H](C)CC[C@H]1C(C)C` [BIO1185, Methyl-carbamic acid (1R,2S,5R)-2-isopropyl-5-methyl-cyclohexyl ester] has an IC50 of 109 µM.
In the case of `CC(C)[C@@H]1CC[C@@H](C)C[C@H]1OC(=O)NC1CCCCC1` [BIO1266, Cyclohexyl-carbamic acid (1R,2S,5R)-2-isopropyl-5-methyl-cyclohexyl ester], the IC50 is reported as 18.8 µM.
With `CCCCNC(=O)O[C@@H]1C[C@H](C)CC[C@H]1C(C)C` [BIO1267, Butyl-carbamic acid (1R,2S,5R)-2-isopropyl-5-methyl-cyclohexyl ester] the IC50 was 498 µM.
With `CC(C)OCCCNC(=O)O[C@@H]1C[C@H](C)CC[C@H]1C(C)C` [BIO1268, (3-Isopropoxy-propyl)-carbamic acid (1R,2S,5R)-2-isopropyl-5-methyl-cyclohexyl ester] the IC50 was 19.6 µM.
`CCCCCCNC(=O)O[C@@H]1C[C@H](C)CC[C@H]1C(C)C` [BIO1271, Hexyl-carbamic acid (1R,2S,5R)-2-isopropyl-5-methyl-cyclohexyl ester] was tested, and the IC50 was 18.9 µM.
`CNC(=O)O[C@H]1C[C@@H](C)CC[C@@H]1C(C)C` [BIO1301, Methyl-carbamic acid (1S,2R,5S)-2-isopropyl-5-methyl-cyclohexyl ester] was tested, and the IC50 was 63.9 µM.
Work on `COCCNC(=O)O[C@@H]1C[C@H](C)CC[C@H]1C(C)C` [BIO1336, (2-Methoxy-ethyl)-carbamic acid (1R,2S,5R)-2-isopropyl-5-methyl-cyclohexyl ester] yielded an IC50 of 35.3 µM.
Compound `COCCCNC(=O)O[C@H]1C[C@@H](C)CC[C@@H]1C(C)C` [BIO1339, (3-Methoxy-propyl)-carbamic acid (1S,2R,5S)-2-isopropyl-5-methyl-cyclohexyl ester] has an IC50 of 53.2 µM.
`CCNC(=O)O[C@H]1C[C@@H](C)CC[C@@H]1C(C)C` [BIO1378, Ethyl-carbamic acid (1S,2R,5S)-2-isopropyl-5-methyl-cyclohexyl ester] gave an IC50 of 29.3 µM.
`COCCCNC(=O)O[C@H]1C[C@H](C)CC[C@H]1C(C)C` [BIO1460, (3-Methoxy-propyl)-carbamic acid (1S,2S,5R)-2-isopropyl-5-methyl-cyclohexyl ester] was tested, and the IC50 was 7.3 µM.
For `CCNC(=O)O[C@H]1C[C@H](C)CC[C@H]1C(C)C` [BIO1461, Ethyl-carbamic acid (1S,2S,5R)-2-isopropyl-5-methyl-cyclohexyl ester], the IC50 was 28.7 µM.
`CCN(CC)C(=O)O[C@@H]1C[C@H](C)CC[C@H]1C(C)C` [BIO1553, Diethyl-carbamic acid (1R,2S,5R)-2-isopropyl-5-methyl-cyclohexyl ester] gave an IC50 of 10.7 µM.
Work on `CC(C)[C@@H]1CC[C@@H](C)C[C@H]1OC(=O)Nc1ccccc1` [BIO1580, Phenyl-carbamic acid (1R,2S,5R)-2-isopropyl-5-methyl-cyclohexyl ester] yielded an IC50 of 6.9 µM.
`CCOc1ccccc1NC(=O)O[C@@H]1C[C@H](C)CC[C@H]1C(C)C` [BIO1632, (2-Ethoxy-phenyl)-carbamic acid (1R,2S,5R)-2-isopropyl-5-methyl-cyclohexyl ester] was tested, and the IC50 was 3.2 µM.
For `CC(=O)c1ccccc1NC(=O)O[C@@H]1C[C@H](C)CC[C@H]1C(C)C` [BIO1633, (2-Acetyl-phenyl)-carbamic acid (1R,2S,5R)-2-isopropyl-5-methyl-cyclohexyl ester], the IC50 was 25.4 µM.
Compound `CC(C)[C@@H]1CC[C@@H](C)C[C@H]1OC(=O)NCCCCCCO` [BIO1662, (6-Hydroxy-hexyl)-carbamic acid (1R,2S,5R)-2-isopropyl-5-methyl-cyclohexyl ester] has an IC50 of 50.7 µM.
`CC(C)[C@@H]1CC[C@@H](C)C[C@H]1OC(=O)NCc1ccccc1` [BIO1695, Benzyl-carbamic acid (1R,2S,5R)-2-isopropyl-5-methyl-cyclohexyl ester] gave an IC50 of 7.7 µM.
`CC(C)[C@@H]1CC[C@@H](C)C[C@H]1OC(=O)NCC1CCCCC1` [BIO1699, Cyclohexylmethyl-carbamic acid (1R,2S,5R)-2-isopropyl-5-methyl-cyclohexyl ester] showed an IC50 of 1.4 µM.
With `CC(C)[C@@H]1CC[C@@H](C)C[C@H]1OC(=O)NCC1CCCO1` (stereo partly drawn) [BIO1702, (Tetrahydro-furan-2-ylmethyl)-carbamic acid (1R,2S,5R)-2-isopropyl-5-methyl-cyclohexyl ester] the IC50 was 14.8 µM.
Work on `OC[C@H]1O[C@@H](Oc2ccc(O)cc2)[C@H](O)[C@@H](O)[C@@H]1O` [beta-Arbutin, reference compound] yielded an IC50 of 67 µM.
